One series addresses T1, hα7-wt nAChR (Homo sapiens, UniProt P36544).
T1 construct: expressed in transfected cells
Description: Ca2+ flux imaging (FDSS) (Protocol B), PAM activity with choline as agonist. The note with it: for EC50: "<5" = no top plateau at maximal concentration; for Emax: read-out: % efficacy. The format is cell-based. Here is the method: • Hanks buffered saline solution (HBSS, Invitrogen, Belgium), supplemented with 10 mM HEPES (Invitrogen, Belgium), CaCl2 to a final concentration of 5 mM, 0.1% Bovine serum albumin (Sigma-Aldrich NV, Belgium). b) Calcium-Sensitive Dye—Fluo-4AM • Fluo-4AM (Molecular Probes, USA) was dissolved in DMSO containing 10% Pluronic acid (Molecular Probes, USA) to give a stock solution which was diluted in assay buffer supplemented with 5 mM probenicid (Sigma, Aldrich NV, Belgium) to give a final concentration of 2 μM. c) 384-Well Plates • Black 384 well plate black/clear plates, PDL pre-coated (Corning, Incorporated, USA) d) Calcium Flux Measurement
A Functional drug screening system (FDSS, Hamamatsu) was used to measure intracellular free-calcium flux signals.
Monolayers of hα7-wt nAChR-expressing cells were grown in multi-well plates, in particular black-sided, transparent bottomed 384 well plates coated with poly-D-lysine for 24 hours prior to loading with a fluorescent calcium indicator, in a particular embodiment loading with fluo-4AM for up to 120 minutes.
PAM activity was detected in real time by applying the compounds to be tested to the loaded cells along with a α7 nicotinic receptor agonist during constant monitoring of cellular fluorescence in a FDSS. Compounds giving peak fluorescent responses greater than the response due to agonist alone, were considered to be α7 nAChR PAM's. In a particular embodiment, the α7 nicotinic receptor agonist was choline, a more particular embodiment choline applied at a sub-maximal concentration of 100 μM. In a further setting of the present invention the compounds to be tested were applied prior to the α7 nicotinic receptor agonist, in a particular embodiment up to 10 minutes prior to the agonist.
A control response to choline was calculated on each plate from the difference in peak in fluorescence in wells receiving either choline or assay buffer alone. Compounds of the present invention were tested at a concentration range from 0.01 μM to 30 μM. Compounds were considered to have an interesting activity when they potentiated the choline signal at least with 500% when tested at a concentration of 30 μM (the efficacy of 100 μM choline was defined as 100% in the absence of a PAM). The compounds also have a potentiating effect on the response to choline when measured by whole-cell patch clamp electrophysiology in GH4C1 cells stably over-expressing the human wild-type α7 receptor.

Where a name gives a salt, the structure may show the parent alone. A value given as a limit tells only on which side of the number the result lay.

T1 sequence (P36544 23-502): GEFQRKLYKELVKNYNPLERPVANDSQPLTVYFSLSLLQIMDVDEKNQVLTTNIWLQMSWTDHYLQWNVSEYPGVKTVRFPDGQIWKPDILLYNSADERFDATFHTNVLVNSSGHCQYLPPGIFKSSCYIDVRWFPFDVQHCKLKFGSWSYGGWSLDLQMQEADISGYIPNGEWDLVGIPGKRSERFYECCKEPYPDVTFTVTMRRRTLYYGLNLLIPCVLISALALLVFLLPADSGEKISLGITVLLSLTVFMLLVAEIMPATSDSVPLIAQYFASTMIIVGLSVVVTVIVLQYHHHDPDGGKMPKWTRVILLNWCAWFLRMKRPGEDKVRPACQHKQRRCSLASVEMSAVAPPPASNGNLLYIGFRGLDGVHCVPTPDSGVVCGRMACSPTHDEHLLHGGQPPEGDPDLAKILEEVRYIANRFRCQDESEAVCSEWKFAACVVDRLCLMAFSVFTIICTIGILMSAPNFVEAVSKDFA

`C[C@@H](O)Cn1nc(Nc2ccc(F)c(C(F)(F)F)c2)nc1-c1ccc(C2CC2)nc1` (as salt: HCl) (hydrate or solvate) [Compound 100]: the melting point (usually the temperature, or range, at which the solid turns liquid) was found to be 204.6 °C. On the same count and under the same terms, the result for `CC(O)Cn1nc(Nc2cccc(OC(F)(F)F)c2)nc1-c1ccnc(C2CC2)c1` (centres unmarked) (as salt: HCl) [Compound 151] reads 207.5 °C. As to `CNC(=O)Cn1nc(Nc2cccc(C(F)(F)F)c2)nc1-c1ccc2c(c1)OCCO2` [Compound 1], the melting point was 206.2 to 207.1 °C. On hα7-wt nAChR, the EC50 (commonly the concentration at which the effect is half-maximal) was 251 nM.

Take `OCCn1nc(Nc2cccc(C(F)(F)F)c2)nc1-c1ccncc1` [Compound 2]: the melting point fell in the range of 179.1 to 180 °C. Further, the EC50 at hα7-wt nAChR was 7940 nM. On the same counts, the results for `CN(C)C(=O)CCn1nc(Nc2cccc(C(F)(F)F)c2)nc1-c1ccncc1` [Compound 4] are 164.2 to 174.2 °C and 501 nM.

Turning to `CC(C)NC(=O)Cn1nc(Nc2cccc(C(F)(F)F)c2)nc1-c1ccc2c(c1)OCCO2` [Compound 5], the melting point was in the range of 213.9 to 215 °C. Moreover, the concentration for a half-maximal effect (EC50) at hα7-wt nAChR is 200 nM.

With `Cc1cc(C(=O)NCCCn2nc(Nc3cccc(C(F)(F)F)c3)nc2-c2ccncc2)no1` [Compound 8], the melting point lay within 152.9 to 154.9 °C. At hα7-wt nAChR, the half-maximal effective concentration (EC50) is 2510 nM. On the same counts, the results for `CNC(=O)Cn1nc(Nc2cccc(C(F)(F)F)c2)nc1-c1ccncc1` [Compound 9] are 212.9 to 214 °C and more than 10000 nM. For `NC(=O)CCn1nc(Nc2cccc(C(F)(F)F)c2)nc1-c1ccc2c(c1)OCCO2` [Compound 10] the same measures were 175.2 to 176.5 °C and 2000 nM. Regarding `CNC(=O)CCn1nc(Nc2cccc(C(F)(F)F)c2)nc1-c1ccc2c(c1)OCCO2` [Compound 12], on hα7-wt nAChR, the EC50 was 794 nM. The compound `OCCn1nc(Nc2cc(Cl)ccc2Cl)nc1-c1ccncc1` [Compound 14] showed a melting point of 163.4 to 165.2 °C. Also, at hα7-wt nAChR, the EC50 is 5010 nM. In the case of `COc1cc(OC)c(Nc2nc(-c3ccncc3)n(CCO)n2)cc1Cl` [Compound 15], the melting point lay within 207.2 to 207.9 °C. Still for that read-out and setting: in the case of `OCCn1nc(Nc2cc(Cl)ccc2Cl)nc1-c1ccccc1` [Compound 17] it was 140.5 to 142 °C. Turning to `NC(=O)Cn1nc(Nc2cccc(C(F)(F)F)c2)nc1-c1ccncc1` [Compound 19], the melting point lay within 271 to 272.1 °C. In addition, the EC50 at hα7-wt nAChR was more than 10000 nM. On the same counts, the results for `NC(=O)Cn1nc(Nc2cccc(C(F)(F)F)c2)nc1-c1ccc2c(c1)OCCO2` [Compound 21] are 225.5 °C and 1260 nM. As for `CC(C)NC(=O)CCn1nc(Nc2cccc(C(F)(F)F)c2)nc1-c1ccncc1` [Compound 22], the melting point was in the range of 196.5 to 197.2 °C. `COCCNC(=O)Cn1nc(Nc2cccc(C(F)(F)F)c2)nc1-c1ccncc1` [Compound 24] showed a melting point of 184.2 to 188.1 °C. Besides, at hα7-wt nAChR, the EC50 was more than 10000 nM. For `Cc1cc(-c2nc(Nc3ccc4c(c3)OC(F)(F)O4)nn2CC(=O)NCC2CC2)ccn1` [Compound 26] the same measures were 227.2 °C and 794 nM. `CNC(=O)Cn1nc(Nc2ccc(F)c(C(F)(F)F)c2)nc1-c1cnc2c(c1)OCC2` [Compound 28]: the melting point turned out to be 246.8 °C. Besides, at hα7-wt nAChR, the concentration for a half-maximal effect (EC50) was 794 nM. On to `CC(C)(C)OC(=O)CCn1nc(Nc2ccc(F)c(C(F)(F)F)c2)nc1-c1ccnc(C#N)c1` [Compound 29], for which the melting point was 156.1 °C.

Compound `CC(C)(C)OC(=O)CCn1nc(Nc2ccc(F)c(C(F)(F)F)c2)nc1-c1ccnc(CN)c1` [Compound 30] displayed a melting point of 151.6 °C. Same read-out and setting: the result for `O=C(O)CCn1nc(Nc2ccc(F)c(C(F)(F)F)c2)nc1-c1ccnc(Cl)c1` [Compound 31] reads 180.7 °C.

Regarding `CN(C)C(=O)CCn1nc(Nc2ccc3c(c2)OC(F)(F)O3)nc1-c1ccncc1` [Compound 33], the melting point was 216.4 °C. Further, the EC50 on hα7-wt nAChR is 631 nM. For `CNC(=O)Cn1nc(Nc2cc(F)c(F)c(NC)c2)nc1-c1ccnc(NC)c1` [Compound 35] the same measures were 221.6 °C and more than 10000 nM. For `CNC(=O)Cn1nc(Nc2cc(F)c(F)c(F)c2)nc1-c1ccnc(NC)c1` [Compound 36] the same measures were 277.5 °C and 2510 nM. The compound `CNc1cc(-c2nc(Nc3ccc(F)c(C(F)(F)F)c3)nn2CCc2noc(C)n2)ccn1` [Compound 37] returned a melting point of 188.7 °C. On hα7-wt nAChR, the EC50 was 1260 nM. On the same counts, the results for `CCNc1cc(-c2nc(Nc3cc(F)c(F)c(F)c3)nn2C[C@H](C)O)ccn1` [Compound 39] are 165.1 °C and 1000 nM. As for `CNC(=O)c1ccc(-c2nc(Nc3ccc(F)c(F)c3)nn2C[C@H](C)O)cn1` [Compound 41], the melting point was found to be 186.1 °C. Besides, on hα7-wt nAChR, the EC50 was more than 10000 nM and the Emax worked out at 635%. In the case of `N/C(CCn1nc(Nc2ccc(F)c(C(F)(F)F)c2)nc1-c1ccnc(Cl)c1)=N\O` [Compound 55], the melting point was found to be 166.8 °C. As for `CN(C)C(=O)CCn1nc(Nc2ccc(F)c(C(F)(F)F)c2)nc1-c1cnc2c(c1)CCN2` [Compound 58], at hα7-wt nAChR, the EC50 was 158 nM. Turning to `CN(C)C(=O)CCn1nc(Nc2ccc(F)c(C(F)(F)F)c2)nc1-c1ccnc(CN)c1` [Compound 60], at hα7-wt nAChR, the EC50 is 3980 nM and the Emax is 772%. The compound `N#CCCn1nc(Nc2cccc(C(F)(F)F)c2)nc1-c1ccncc1` [Compound 64] displayed a melting point of 155.9 to 157.1 °C. On to `Cc1noc(CCn2nc(Nc3ccc(F)c(C(F)(F)F)c3)nc2-c2ccncc2)n1` [Compound 69], for which the EC50 on hα7-wt nAChR was 2000 nM. Still for that read-out and setting: in the case of `O=C(CCn1nc(Nc2cccc(C(F)(F)F)c2)nc1-c1ccncc1)N1CCOCC1` [Compound 86] it was 1260 nM.

`COCCNc1ccc(-c2nc(Nc3ccc(F)c(C(F)(F)F)c3)nn2CCO)cn1` [Compound 93]: on hα7-wt nAChR, the EC50 is 3160 nM and the Emax came out at 764%.

Take `OCCn1nc(Nc2ccc(F)c(C(F)(F)F)c2)nc1-c1ccc(NC2CC2)nc1` [Compound 95]: on hα7-wt nAChR, the 50% effective concentration (EC50) was 2000 nM and the Emax was 899%. Consider `CCNc1cc(-c2nc(Nc3ccc(F)c(C(F)(F)F)c3)nn2C[C@H](C)O)ccn1` [Compound 99], for which, at hα7-wt nAChR, the EC50 was 1000 nM. On to `C[C@H](O)Cn1nc(Nc2ccc(F)c(C(F)(F)F)c2)nc1-c1ccc(C2CC2)nc1` [Compound 101], for which the concentration giving a half-maximal response (EC50) on hα7-wt nAChR was 631 nM. The same measure, in the same setting: the result for `C[C@H](O)Cn1nc(Nc2ccc(F)c(C(F)(F)F)c2)nc1-c1ccnc(C2CC2)c1` [Compound 102] reads 2000 nM; that for `C[C@H](O)Cn1nc(Nc2ccc(F)c(C(F)(F)F)c2)nc1-c1cnc2ccoc2c1` [Compound 106], 2510 nM. Still for that read-out and setting: the result for `CC(C)(C)NC(=O)CCn1nc(Nc2ccc(F)c(C(F)(F)F)c2)nc1-c1ccncc1` [Compound 137] reads 1580 nM; that for `CCNC(=O)Cn1nc(Nc2cc(Br)cc(C(F)(F)F)c2)nc1-c1ccc(OC)c(OCc2ccccc2)c1` [Compound 142], 100 nM.

On to `COc1cc(Nc2nc(-c3ccnc(NCCO)c3)n(CC(=O)NCCO)n2)cc(C(F)(F)F)c1` [Compound 147], for which, on hα7-wt nAChR, the EC50 was more than 10000 nM and the Emax came to 864%. For `CCNc1cnccc1-c1nc(Nc2cccc(OC(F)(F)F)c2)nn1CC(C)O` (centres unmarked) [Compound 149] the same measures were 1000 nM and 704%. Consider `CC(O)Cn1nc(Nc2cccc(OC(F)(F)F)c2)nc1-c1ccnc(C2CC2)c1` (centres unmarked) [Compound 151], for which, on hα7-wt nAChR, the EC50 was 2000 nM. For `CN(C)CCNC(=O)Cn1nc(Nc2cccc(OC(F)(F)F)c2)nc1-c1ccc2c(c1)OCCO2` [Compound 161], on hα7-wt nAChR, the half-maximal effective concentration (EC50) was 1580 nM and the Emax amounted to 550%. As for `C[C@H](O)Cn1nc(Nc2cc(F)c(F)c(F)c2)nc1-c1ccnc(NC2CC2)c1` [Compound 173], the EC50 on hα7-wt nAChR was 501 nM. Take `CN(C)C(=O)CCn1nc(Nc2cccc(Cl)c2)nc1-c1ccc2c(c1)OCCO2` [Compound 195]: the 50% effective concentration (EC50) on hα7-wt nAChR was 79.4 nM. Still for that read-out and setting: in the case of `COc1ccc(Cl)cc1Nc1nc(-c2ccc3c(c2)OCCO3)n(CCC(=O)N(C)C)n1` [Compound 197] it was 126 nM; in that of `Cc1cc(-c2nc(Nc3ccc4c(c3)OC(F)(F)O4)nn2CC(C)O)ccn1` (centres unmarked) [Compound 198], more than 10000 nM; in that of `CN(C)C(=O)CCn1nc(N2CCc3ccc(C(F)(F)F)cc32)nc1-c1ccc2c(c1)OCCO2` [Compound 211], 1000 nM.

The values are drawn from patent US8143419B2, “Trisubstituted 1,2,4-triazoles” (Janssen Pharmaceutica N. V., priority 2006, dated 2012).
